How the values were obtained:
aldosterone = experiment: Aldosterone antagonist effect in adrenalectomized DOCA-treated rats, urinary Na+/K+ (method of C. M. Kagawa); assay type: in vivo; conditions: for Activity related to Spironolactone: Spironolactone = 1.0
Protocol: M. Kagawa [C. M. Kagawa et al., J. Pharmacol. Exp. Ther. 126, 123 (1959)].
18 hours after the removal of their suprarenal glands, desoxycorticosterone acetate (DOCA) was administered to groups of rats which were simultaneously treated with the test and, respectively, the reference compounds. The reference compound, i.e. Spironolactone (17α-carboxyethyl-17β-hydroxy-7α-acetylthioandrost-4-en-3-one-lactone), was administered orally in a dose of 480 μg./animal. The Na^+ and K^+ concentrations in the urine of the treated animals were determined by flame photometry. Evaluation was made on the basis of the Na^+ /K^+ proportions.

[1] = system: vesicula seminalis gland (weight increase induced by testosterone propionate); experiment: Antiandrogenic activity in castrated testosterone propionate-treated male mice, vesicula seminalis weight (modified method of Dorfman); assay type: in vivo
Protocol: The antiandrogenic activity of the compounds according to the invention--anundesirable side-effect exerted by spironolactone during protracted treating--was tested by the modified method of Dorfman (R. Dorfman: Steroids 2, 185 (1963).
Castrated male mice weighing 25 to 30 g. each were treated with testosterone propionate (T.P.) in every second day. The total dose amounted to 300 μg./2 weeks/animal. The test compounds were administered parallel with the T. […] The antiandrogenic activity of a given test compound was expressed in %. If the increase in weight of the vesicula seminalis gland induced by T.P. is 100%, subtracting the weight-increase induced by the combination of T.P. and the test compound from 100, the percentage inhibition is obtained.
Each group of test amimals consisted of from 8 to 10 mice.

[2] = Rattus norvegicus, po, 480 μg/animal p.o., read-out: DOCA blocking activity
[3] = Rattus norvegicus, po, 960 μg/animal p.o., read-out: DOCA blocking activity
[4] = 5.0 mg/2 weeks/animal s.c., with testosterone propionate
[5] = 10.0 mg/2 weeks/animal s.c., with testosterone propionate

| Compound | log (Na × 10 / K), X ± S (aldosterone; 480 μg/animal p.o., with DOCA) | Activity related to Spironolactone (aldosterone; 480 μg/animal p.o.) | log (Na × 10 / K), X ± S (aldosterone; 960 μg/animal p.o., with DOCA) | inhibition in vivo at 0.48 mg (aldosterone; [2]) | inhibition in vivo at 0.96 mg (aldosterone; [3]) | + Stimulation, % / - Inhibition, % [1, 4] | Increase in weight of vesicula seminalis [1, 4] | further results |
| --- | --- | --- | --- | --- | --- | --- | --- | --- |
| CN1C[C@@]2(CC[C@H]3[C@@H]4CC=C5C[C@@H](F)CC[C@]5(C)[C@H]4CC[C@@]32C)OC1=O [3β-Fluoroandrost-5-ene-17S-spiro-5'-(2'-oxo-3'-methyloxazolidine)] | 0.98 | 0.80 | 1.13 | 26% | 45% |  |  |  |
| CN1C[C@@]2(CC[C@H]3[C@@H]4C=C[C@]56C[C@@H](O)CC[C@]5(C6)[C@H]4CC[C@@]32C)OC1=O [3β-Hydroxy-5β,19-cycloandrost-6-ene-17S-spiro-5'-(2'-oxo-3'-methyloxazolidine)] | 1.18 | 0.98 | 1.23 | 51% | 58% |  |  |  |
| C/C=C\N1C[C@@]2(CC[C@H]3[C@@H]4CCC5=C(CC=C(OC)C5)[C@H]4CC[C@@]32CC)OC1=O [13β-Ethyl-3-methoxygona-2,5(10)-diene-17S-spiro-5'-(2'-oxo-3'-(1"-cis-propenyl)-oxazolidine)] | 1.16 | 0.96 | 1.22 | 49% | 56% | +12.5% | 112.5% |  |
| CC[C@]12CC[C@H]3[C@@H](CCC4=CC(=NOC)CC[C@@H]43)[C@@H]1CC[C@@]21CN(C)C(=O)O1 [13β-Ethyl-3-methoxyiminogon-4-ene-17S-spiro-5'-(2'-oxo-3'-methyloxazolidine)] | 1.19 | 0.98 | 0.97 | 53% | 24% | +15.0% | 115.0% |  |
| CC[C@]12CC[C@H]3[C@@H](CCC4=CC(=O)CC[C@@H]43)[C@@H]1CC[C@@]21CN(C)C(=O)O1 [13β-Ethyl-4-en-3-one-17S-spiro-5'-(2'-oxo-3'-methyloxazolidine)] | 1.13 | 0.93 | 1.16 | 45% | 49% |  |  | log (Na × 10 / K), X ± S (aldosterone; 1920 μg/animal p.o., with DOCA): 1.30; inhibition in vivo at 1.92 mg (aldosterone; Rattus norvegicus, po, 1920 μg/animal p.o., read-out: DOCA blocking activity): 67% |
| CC[C@]12CC[C@@H]3C4=C(CC[C@H]3[C@@H]1CC[C@@]21CN(C)C(=O)O1)CC(=O)CC4 [13β-Ethylgon-5(10)-en-3-one-17S-spiro-5'-(2'-oxo-3'-methyloxazolidine)] | 1.02 | 0.84 | 1.34 | 31% | 71% | +14.0% | 114.0% |  |
| CC[C@]12C=CC3=C4CCC(=O)C=C4CC[C@H]3[C@@H]1CC[C@@]21CN(C)C(=O)O1 [13β-Ethylgona-4,9(10),11-trien-3-one-17S-spiro-5'-(2'-oxo-3'-methyloxazolidine)] |  |  |  |  |  |  |  | antialdosterone activity (aldosterone; compared with the compounds listed in Table I, result in words): negligible; inhibition against testosterone propionate (antiandrogenic activity) ([1]; 300 μg/2 weeks/animal, against 300 μg/2 weeks/animal T.P.): 70% |
| CN1C[C@@]2(CC[C@H]3[C@@H]4C=CC5=CC(=O)CC[C@]5(C)[C@H]4CC[C@@]32C)OC1=O [Androst-4,6-dien-3-one-17S-spiro-5'-(2'-oxo-3'-methyloxazolidine)] | 1.14 | 0.94 | 1.74 | 46% | 123% | -1.4% | 98.6% |  |
| CC(=O)OCC(=O)[C@H]1CC[C@H]2[C@@H]3CCC4=CC(=O)CC[C@]4(C)[C@H]3CC[C@]12C [DOCA, Pregn-4-ene-3,20-dion-21-ol-acetate, reference compound] |  |  |  |  |  |  |  | log (Na × 10 / K), X ± S (aldosterone; DOCA, 12.5 μg/animal s.c.): 0.78 |
| CN1C[C@@]2(CC[C@H]3[C@@H]4CCC5=CC(=O)CC[C@@H]5[C@H]4CC[C@@]32C)OC1=O [Oestr. 4-en-3-one-17S-spiro-5'-(2'-oxo-3'-methyloxazolidine)] | 1.26 | 1.04 | 1.12 | 61% | 44% | +13.0% | 113.0% |  |
| CC(=O)S[C@@H]1CC2=CC(=O)CC[C@]2(C)[C@H]2CC[C@@]3(C)[C@@H](CC[C@@]34CCC(=O)O4)[C@H]12 [Spironolactone, 17α-carboxyethyl-17β-hydroxy-7α-acetylthioandrost-4-en-3-one-lactone, reference compound] | 1.21 | 1.0 |  | 54% |  | -32.5% | 67.5% | inhibition (antiandrogenic activity) ([1]; 5.0 mg/2 weeks/animal s.c.): 32.5%; inhibition (antiandrogenic activity) ([1]; 10.0 mg/2 weeks/animal s.c.): 50.6%; + Stimulation, % / - Inhibition, % [1, 5]: -50.6%; Increase in weight of vesicula seminalis [1, 5]: 49.4% |
| CCC(=O)O[C@H]1CC[C@H]2[C@@H]3CCC4=CC(=O)CC[C@]4(C)[C@H]3CC[C@]12C [Testosterone propionate, testosterone propionate, reference compound] |  |  |  |  |  |  |  | Increase in weight of vesicula seminalis ([1]; testosterone propionate, 0.3 mg/2 weeks/animal): 100% |

— patent publication US4180505A, “Novel steroidspirooxazolidines and process for their preparation” (Richter Gedeon Vegyeszet, Gyar RT, priority 1977, dated 1979)
